Where a SMILES comes first, the peptide text is derived from it. Bridges are numbered along the chain shown (N, C = ends). [ ]: non-standard residue; d: D form. Orn = NCCC[C@H](N)C(=O)O; Mpa = O=C(O)CCS
Columns and labels:
IVF/ICSI patients [1] = conditions: cited from earlier work
IVF/ICSI patients [2] = assay: BASIC randomized, placebo-controlled, double-blind clinical trial: barusiban subcutaneously on the day of transfer, implantation in IVF/ICSI patients; type: in vivo, human
Excerpt: Example 1: A randomized, placebo-controlled, double-blind, parallel groups, multinational, multicenter trial assessing the effect of barusiban administered subcutaneously on the day of transfer on implantation and pregnancy rates in IVF/ICSI patients
BASIC was a randomized, double-blind, placebo-controlled, parallel groups, multinational, multicenter trial. It was designed to evaluate the effects of barusiban, administered either on the day of cleavage-stage embryo transfer or on the day of blastocyst transfer, on ongoing implantation rate in IVF/ICSI patients. The patients underwent controlled ovarian stimulation in the long GnRH agonist or GnRH antagonist protocol, received hCG for triggering of final follicular maturation, had undergone oocyte retrieval, and had daily luteal phase support by supplementation with vaginal progesterone starting on day 1 post-retrieval, and transfer on day 3 or 5 post-retrieval. Patients were randomized in a 1:1 ratio to either the barusiban group or the placebo group, with stratification according to the day of transfer (day 3 post-retrieval or day 5 post-retrieval) and the number of embryos/blastocysts to be transferred (1 or 2). In total, 255 IVF/ICSI patients were randomized in the trial and contributing with 440 embryos/blastocysts.
Investigational medicinal product, i.e., barusiban or placebo according to randomization, was administered as subcutaneous injections at two time points: 1st administration of 40 mg barusiban or placebo was […] prior to transfer and the 2nd administration of 10 mg barusiban or placebo was […] after the 1st administration.
Transfer was performed on day 3 (cleavage-stage embryos) or day 5 (blastocysts) after oocyte retrieval. On day 3, only embryos of good quality defined as ≥6 blastomeres and ≤20% fragmentation were transferred. On day 5, blastocysts with expansion and hatching status 3, 4, 5 or 6 were transferred. The actual number of transferred embryos/blastocysts for each individual patient depended on the availability of embryos; blastocysts of the required morphological quality, local regulations and clinical practice for the patient's age, but the maximum number was 2.
Key aspects related to the transfer procedure had been standardized. A speculum was inserted into the vagina and cleaning of the vagina and cervix was done according to local practices but with minimal manipulation and disturbance. Soft or ultrasoft catheters were used. The outer sheath of the catheter was inserted just protruding to the internal os (i.e. keeping the outer sheath in the cervical canal). The embryo(s)/blastocyst(s) were loaded into the inner sheath which was then inserted through the outer sheath. Using abdominal ultrasound guidance, the embryo(s)/blastocyst(s) were placed 1.5-2.0 cm from the fundus. The time from loading the inner catheter to placing the embryo(s)/blastocyst(s) should not have exceeded 1 min. After placement, the inner and outer catheters were withdrawn and checked for retained embryo(s)/blastocyst(s), mucus and blood. After confirmation that there were no embryo(s)/blastocyst(s) left in the catheters, the speculum was subsequently removed; this occurred approximately within 2 min after placement of the embryo(s)/blastocyst(s). Any difficulties/eventualities occurring during the transfer procedure were recorded.
Patients received vaginal progesterone tablets 100 mg twice daily from the day after oocyte retrieval and until the day of the clinical pregnancy visit. On the day of transfer, patients should insert the progesterone tablets at least 3 hours before transfer and at least 3 hours after transfer. Ongoing implantation rate (primary endpoint) was defined as the number of intrauterine viable fetuses 10-11 weeks after transfer divided by number of embryos/blastocysts transferred. […]

Molecule | increase in implantation or live birth rates compared to placebo (IVF/ICSI patients [1]; administration on day 2 or day 3 post-retrieval (early luteal phase)) | live birth rate (IVF/ICSI patients [1]; cleavage-stage embryo transfer on day 2 or day 3 post-retrieval, N=800, placebo 38.0%) [%] | effect on improving ongoing implantation rate (IVF/ICSI patients [2]; blastocyst transfer on day 5 (receptive stage), p=0.0270) | odds ratio for ongoing implantation rate (IVF/ICSI patients [2]; blastocyst transfer on day 5 post-retrieval, vs placebo, CI 1.1-4.7, p=0.0270) | relative Δ of ongoing implantation rate vs placebo (IVF/ICSI patients [2]; blastocyst transfers (day 5), adjusted means 45% vs 27%) [%] | adjusted mean of ongoing implantation rate (IVF/ICSI patients [2]; blastocyst transfers (day 5 post-retrieval), placebo 27%) [%] | effect on ongoing implantation rate (IVF/ICSI patients [2]; cleavage-stage embryo transfer on day 3 (pre-receptive stage)) | odds ratio for ongoing implantation rate (IVF/ICSI patients [2]; cleavage-stage embryo transfer on day 3 post-retrieval, vs placebo, CI 0.3-1.2, p=0.1509) | odds ratio for ongoing implantation rate (IVF/ICSI patients [2]; overall (day 3+day 5), barusiban vs placebo, logistic regression, PP, 95% CI 0.7-1.8, p=0.6960) | observed overall ongoing implantation rate (IVF/ICSI patients [2]; overall (day 3+day 5 transfers), per-protocol population, 40 mg + 10 mg s.c. on day of transfer) [%] | ongoing implantation rate (IVF/ICSI patients [2]; overall, intention-to-treat (ITT) population) [%]
CCOc1ccc(C[C@H]2NC(=O)CCSSC[C@@H](C(=O)N3CCC[C@H]3C(=O)N[C@@H](CCCN)C(=O)NCC(N)=O)NC(=O)[C@H](CC(N)=O)NC(=O)[C@H]([C@@H](C)O)NC(=O)[C@H]([C@@H](C)CC)NC2=O)cc1 [atosiban, 1-(3-mercaptopropanoic acid)-2-(O-ethyl-D-tyrosine)-4-L-threonine-8-L-ornithine-oxytocin] ([Mpa][dY](Et)ITNCP[Orn]G-NH2; disulfide 1-6) | no significant increase | 39.8 | – | – | – | – | – | – | – | – | –
barusiban | – | – | significant | 2.3 | 67 | 45 | No effect | 0.3 | 1.1 | 27.1 | 26.2

— patent US11752157B2, “Oxytocin receptor antagonist therapy in the luteal phase for implantation and pregnancy in women undergoing assisted reproductive technologies” (Ferring B.V., priority 2014, dated 2023)
